Assay results: patent US20250161262A1, “Pharmaceutical Compositions and Methods for Treating Covid” (priority 2022, published 2025)
Values after ≈ are worked out from the molar mass of the structure shown.

How the values were obtained:
[1] = test system: MERS coronavirus; conditions: MERS coronavirus patients; cited from earlier work
[2] = test system: Influenza A(H1N1) strain A/WSN/1933; conditions: Chan et al. (2013); cited from earlier work
[3] = test system: avian-origin influenza A (H7N9); conditions: To et al. (2016); cited from earlier work
[4] = test system: pandemic flu H/415, A/Hong Kong/415742/2009, A(HINI)pdm09; conditions: To et al. (2016); cited from earlier work
[5] = test system: Norovirus; test: Norovirus tests; assay type: cell-based; conditions: one of the Norovirus tests; read-out: ECso
Source text: (§1) It is important to understand that mycophenolic acid's anti-viral effect is likely to require a small fraction (about 1-2% or less) of the clinical dose which is approved and commonly used for prevention of transplant rejection. For instance, Chan et al., 2013, p. […] For instance, in one of the Norovirus tests we document here, ECso of 0.151 mcg/mL was reported. Even less mycophenolic acid would be needed to treat viruses such as Influenza A HNI and RSV in which we report ECso <0.10 mcg/ml. Dramatically lower doses may suffice for mycophenolic acid. Therefore, it is not only possible to achieve adequate body levels of mycophenolic acid to treat these viruses clinically, but also a small fraction of the current clinical dose may be more than adequate. To et al, 2016 also presented data on page 1812 supporting these conclusions.

[6] = test system: virus; conditions: cited from earlier work
[7] = test system: RSV; test: antiviral EC50 against RSV; assay type: cell-based; conditions: human respiratory syncytial virus, read-out: ECso
Source text: as §1

[8] = test system: seasonal influenza A(H3N2) virus; conditions: To et al. (2016); cited from earlier work
[9] = test system: Influenza A HNI; test: antiviral EC50 against Influenza A; assay type: cell-based; conditions: Influenza A virus, read-out: ECso

Row | Compound | mortality [1] | effectiveness against virus [2] | effectiveness against virus [3] | effectiveness against virus [4] | EC50 [5] [µg/mL] | EC so ([6]; Chan et al., 2013, p. 612) [µg/mL] | local concentrations at usual clinical doses, greater than needed ([6]; usual clinical doses of mycophenolic acid, Chan et al., 2013) | EC50 [7] [µg/mL] | effectiveness against virus [8] | EC50 [9] [µg/mL]
1 | COc1c(C)c2c(c(O)c1C/C=C(\C)CCC(=O)OCCN1CCOCC1)C(=O)OC2 [mycophenolate mofetil, 2-morpholinoethyl ester of mycophenolic acid] | no mortality | – | – | – | – | – | – | – | – | –
2 | COc1c(C)c2c(c(O)c1C/C=C(\C)CCC(=O)O)C(=O)OC2 [mycophenolic acid, 6-(4-hydroxy-6-methoxy-7-methyl-3-oxo-1,3-dihydroisobenzofuran-5-yl)-4-methyl-hex-4-enoic acid] | – | effectiveness | effective | effective | 0.151 (≈ 0.471 µM) | 0.17 | 60-300 × | < 0.1 | effective | < 0.1
